Assay results taken from PubChem BioAssay (NCI).
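96-well plates; 48 h exposure; 5 concentrations. Endpoints by linear interpolation between flanking doses. Not reached: highest tested concentration assigned. TGI denotes the concentration required for complete inhibition of growth.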

Assays:
Assay in all cases: inhibition of tumour cell growth, NCI panel, 48 h
SK-MEL-2 melanoma = tested on: SK-MEL-2 melanoma
SK-OV-3 ovarian = tested on: SK-OV-3 ovarian
HOP-18 NSCLC = tested on: HOP-18 NSCLC
SF-295 CNS = tested on: SF-295 CNS
DMS 114 small cell lung = tested on: DMS 114 small cell lung
NCI-H522 lung = tested on: NCI-H522 lung
M19-MEL melanoma = tested on: M19-MEL melanoma
LOX IMVI melanoma = tested on: LOX IMVI melanoma
DLD-1 colon = tested on: DLD-1 colon
NCI-H226 lung = tested on: NCI-H226 lung
LXFL 529 NSCLC = tested on: LXFL 529 NSCLC
SNB-78 CNS = tested on: SNB-78 CNS

Compound | TGI (SK-MEL-2 melanoma) [µM] | TGI (SK-OV-3 ovarian) [µM] | TGI (HOP-18 NSCLC) [µM] | TGI (SF-295 CNS) [µM] | TGI (DMS 114 small cell lung) [µM] | TGI (NCI-H522 lung) [µM] | TGI (M19-MEL melanoma) [µM] | TGI (LOX IMVI melanoma) [µM] | TGI (DLD-1 colon) [µM] | TGI (NCI-H226 lung) [µM] | TGI (LXFL 529 NSCLC) [µM] | TGI (SNB-78 CNS) [µM]
CCCC/C=C/C1Cc2ccccc2CN1S(=O)(=O)c1ccc(C)cc1 (stereo not drawn) | > 100 | 90.6 | > 100 | 35.6 | 12.2 | 20.2 | 18.8 | 22.3 | 32.9 | 25.8 | 22.1 | 
COC(=O)C1=C(C(=O)OC)C2(OC(C)=O)c3ccccc3-c3ccccc3C12 (stereo not drawn) | 29.2 | 29.1 | 9.5 | 33 | 9.89 | 2.8 | 8.79 | 9.51 | 3.28 | 31.2 | 3.38 | 10.8
CC1=C2C(=O)[C@H]3[C@@H](CC=C4C[C@@H](O)CC[C@@]43C)[C@@H]2CC[C@]12O[C@@H]1C[C@H](C)CN[C@H]1[C@H]2C | > 72.5 | > 57.3 | 31.3 | > 58.7 | 41.5 | > 59.6 | 85.3 | > 58.2 | 97.1 | > 61 | 33.7 | 39.8
CSC(C1c2ccccc2N(C)C2=NC(=O)N(C)C(=O)C21Cl)S(=O)(=O)c1ccc(C)cc1 (stereo not drawn) | > 100 | > 100 | > 100 | > 100 | > 100 | 30.8 | > 100 | > 100 | > 100 | > 100 | 57.7 | > 100
Nc1nc(SCCNC(=O)CCc2ccc(O)cc2)nc2c1ncn2C1OC(CO)C(O)C1O (stereo not drawn) | > 203 | > 203 | > 203 | > 203 | > 203 | > 203 | > 203 | > 203 | > 203 | > 203 |  | > 203
Clc1ccc(SCCSCCCCCCCCCCSCCSc2ccc(Cl)cc2)cc1 | > 100 | > 100 | > 100 | > 100 | > 100 | > 100 |  | > 100 | > 100 | > 100 |  | > 100
